Patent US20200131227A1, “POLYPEPTIDE WITH TUMOUR BINDING ACTIVITY” (RUPRECHT-KARLS-UNIVERSITÄT HEIDELBERG, priority 2017, published 2020)
Where a SMILES comes first, the peptide text is derived from it. Bridges are numbered along the chain shown (N, C = ends). The star is where a group is joined. DOTA = O=C(O)CN1CCN(CC(=O)O)CCN(CC(=O)*)CCN(CC(=O)O)CC1

Key:
tumor-free lymph nodes = test: Histochemical peptide staining of carcinoma-free lymph nodes; parameters: species or system human
Experimental: Staining with the biotinylated PEG(12)-SFITGv6 peptide was performed on acetone-fixed cryosections (5 μm) of tumor tissues after blocking of unspecific binding using the Avidin/Biotin Blocking Kit (SP-2001, Vector Laboratories). A stock solution of the lyophilized peptide was prepared by dilution in 5% aqueous DMSO. Slices were incubated overnight at 4° C. with 10^-5 M peptide concentration in antibody diluent (DAKO). Detection of bound peptide was carried out with the Vectastain Elite ABC Kit (PK-6100, Vector Laboratories) according to manufacturer's protocol. Peptide specificity was ensured by a scrambled (GRD) PEG(12)-SFITGv6 derivate, the somatostatin receptor ligand DOTATOC and negative controls (without peptide or primary antibody) Staining results were assessed by bright field microscopy (BX50) with the SC30 camera and the cell Sense software (all Olympus).

[1] = test system: HNSCC cell lines HNO97, HNO399, and HNO223; format: binding, human
Experimental: For the assessment of the peptide binding capacity in vitro, 2.5-4×10^5 cells were seeded into 6-well plates and cultivated for 48 h. ^125I-labeled peptide resuspended in 1 mL serum-free medium was added and incubated for either 10 min or 60 min with or without different concentrations of unlabeled peptide (10^−4-10^−11 M). Afterwards, cell monolayers were washed three times with 1 mL phosphate-buffered saline (pH 7.4) to remove unbound peptide and the cells were harvested with 1.4 mL lysis buffer (0.3 M NaOH). To evaluate kinetic properties the cells were exposed to ^177Lu-DOTA-labeled peptides for 10, 30, 60, 120, and 240 min, respectively, and lysed as described. For the efflux experiments the cells were incubated with ^177Lu-DOTA-labeled peptides for 60 min. Thereafter, radioactive medium was replaced by non-radioactive medium and cell monolayers were incubated for additional 60, 120, and 240 min and afterwards lysed as described earlier. The internalization was assessed after exposure of the cells to ^177Lu-DOTA-labeled peptides for 10, 30, 60, 120, and 240 min at 37° C. Unspecifically bound peptide was removed from the surface by incubation with 1 M glycine-HCl solution (pH 2.2) for 10 min. The monolayer cell was rinsed with PBS and cells were lysed as described before. Radioactivity was determined in a y-counter and calculated as percentage of the applied dose per 1×10^6 cells. […]

[2] = test system: metastasized pancreatic cancer; test: PET/CT and scintigraphy of pancreatic cancer patient; format: in vivo, human; settings: 1 day after 6.5 GBq
Experimental: (§1) PET/CT scans of tumor patients and body scintigraphy were performed as described in Example 1.

ovarian cancer = test: Scintigraphy of ovarian cancer patients; format: in vivo, human; settings: 1 day after 6 GBq and 7.4 GBq
Experimental: as §1

[3] = Biodistribution, Capan-2 xenografts; format: in vivo, mice; settings: Balb/c nude, mouse, tumor (Capan-2 xenograft), iv, 1 MBq, total radioactivity; after 1 hour (highest)
Experimental: 6 to 8 week old Balb c/c nude mice (Charles River Lab.) were inoculated with 5*10^6 Capan-2 cells in 100 μl Opti-MEM medium. After 4 to 6 weeks the tumor has grown 10-15 mm in diameter. For small animal PET imaging 25 MBq of the ^68Ga-labeled peptide (2 nmol) was injected into the tail vein.
For biodistribution assays 1 MBq of ^177Lu-labeled peptide was injected into the tail vein of each mouse. After different time points each animal was sacrificed. Peripheral blood, spleen, liver, intestine, kidney, heart, lung, brain, muscle, and tumor were removed and weighted. Radioactivity was measured in a gamma counter and expressed as injected dose per gram (% ID/g).

HNO399 cells = test: In vitro binding on HNO399 cells; format: cell-based, human; settings: Example 2, 10 min to 480 min (FIG. 16)
Experimental: For the assessment of the peptide binding capacity in vitro, 2.5-4×10^5 cells were seeded into 6-well plates and cultivated for 48 h. ^125I-labeled peptide resuspended in 1 mL serum-free medium was added and incubated for either 10 min or 60 min with or without different concentrations of unlabeled peptide (10^−4-10^−11 M). Afterwards, cell monolayers were washed three times with 1 mL phosphate-buffered saline (pH 7.4) to remove unbound peptide and the cells were harvested with 1.4 mL lysis buffer (0.3 M NaOH). […] For the efflux experiments the cells were incubated with ^177Lu-DOTA-labeled peptides for 60 min. Thereafter, radioactive medium was replaced by non-radioactive medium and cell monolayers were incubated for additional 60, 120, and 240 min and afterwards lysed as described earlier. […] Unspecifically bound peptide was removed from the surface by incubation with 1 M glycine-HCl solution (pH 2.2) for 10 min. The monolayer cell was rinsed with PBS and cells were lysed as described before. Radioactivity was determined in a y-counter and calculated as percentage of the applied dose per 1×10^6 cells. Experiments were performed three times, and three repetitions per independent experiment were acquired.

Capan-2 cells = test: In vitro binding, internalization and efflux on Capan-2 cells; format: cell-based, human
Experimental: For in vitro binding Studies, 4*10^5-6*10^5 cells were seeded in 6 well plates and cultivated for 24 to 48 hours. At the start of the experiment the medium was replaced with 1 ml serum free medium with a definite amount of radioactive labeled peptide per well. For normal binding assays the cells were incubated for 60 min at 37° C. and afterwards washed 3 times with PBS (pH 7.4). Cells were lysed with 2 times 0.5 ml of a 0.3 M NaOH +0.2% SDS lysis-buffer. Competition assays were performed with ^125I-labeled and unlabelled (10^−6 to 10^−11M) peptide and incubated at the same time for 60 min.
Cells were incubated for 10 to 240 min with ^177Lu-labelled peptide in internalization assays. After the washing steps, the cells were incubated with 1 ml glycine-HCl (1 M, pH 2.2) buffer for 10 min to remove surface bound peptide. Prior to the lyses the cells were washed again. Values are given as percentage of applied dose per 10^6 cells.
The efflux was tested with ^177Lu-labeled peptides. After 60 min incubation the radioactive medium was removed and 1 ml fresh serum-free medium was added. After additional incubation of 60, 120 or 240 min, cell bound activity was measured.

Row | Structure (SMILES) | histochemical peptide staining result (tumor-free lymph nodes) | IC50 [1] [nM] | scintigraphic accumulation [2] | scintigraphic accumulation (ovarian cancer) | tissue uptake at 1 h [3] [%ID/g] | maximum binding capacity of ^177Lu-DOTA-labeled peptide (kinetics) (HNO399 cells) [%] | cell binding of ^177Lu-DOTA-labeled peptide (Capan-2 cells; after 60 min) [%] | internalization rate in comparison of the three peptides (Capan-2 cells; after 4 hours) | efflux (released into the culture medium) (Capan-2 cells; during 4 hours following 60 min exposure) [%]
1 | CSCC[C@@H]1NC(=O)[C@H](CC(C)C)NC(=O)[C@H](CC(=O)O)NC(=O)CNC(=O)[C@H](CCCNC(=N)N)NC(=O)[C@H](Cc2ccccc2)NC(=O)[C@H]([C@@H](C)O)NC(=O)[C@@H](NC(=O)[C@H](CCCNC(=N)N)NC(=O)CN)CSSC[C@@H](C(=O)N[C@@H](Cc2ccc(O)cc2)C(=O)N2CCC[C@H]2C(=O)N[C@@H](CC(=O)O)C(=O)O)NC(=O)[C@H](CC(C)C)NC(=O)[C@H](CCC(N)=O)NC1=O [SFITGv6, NH2-G-R-C1-T-F-R-G-D-L-M-Q-L-C1-Y-P-D-COOH] (H-GRCTFRGDLMQLCYPD-OH; disulfide 3-13) | did not show any SFITGv6-specificy | 14.1 | – | – | – | – | – | – | –
2 | CC(C)C[C@@H]1NC(=O)[C@H](CC(=O)O)NC(=O)CNC(=O)[C@H](CCCNC(=N)N)NC(=O)CNC(=O)[C@H]([C@@H](C)O)NC(=O)[C@@H](NC(=O)[C@H](CCCNC(=N)N)NC(=O)CNC(=O)CN2CCN(CC(=O)O)CCN(CC(=O)O)CCN(CC(=O)O)CC2)CSSC[C@@H](C(=O)N[C@@H](Cc2ccc(O)cc2)C(=O)N2CCC[C@H]2C(=O)N[C@@H](CC(=O)O)C(N)=O)NC(=O)[C@H](CC(C)C)NC(=O)[C@H](CCCNC(=N)N)NC(=O)CNC1=O [^177Lu-DOTA-SFLAP3, metal not drawn] ({DOTA}-GRCTGRGDLGRLCYPD-NH2; disulfide 3-13; N-terminus and C-terminus assumed) | – | – | accumulation in the metastatic sites | moderate to good accumulation in the metastases | 4 | 4.31 | 9.5 | highest internalization rate | 50
